Read-outs that look alike come from different tables or passages of the source.
What was measured:
[1] = biological target: CDK7/Cyclin H/MAT1 complex (Homo sapiens, UniProt P50613); assay: CDK7 inhibition assay (Caliper/LabChip EZ Reader kinase assay); format: biochemical; settings: Table 1, CDK7/Cyclin H/MAT1 6 nM, ATP 2 mM, 35 min at 27° C.
Outline: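 A Perkin Elmer Caliper/LabChip EZ Reader (Waltham, MA) platform served as the basis for this CDK7 kinase inhibition assay. The work was carried out by Biortus Biosciences, located in Jiangyin, Jiangsu Province, P.R. of China. Each CDK studied had its own kinase assay, and compounds were evaluated for their ability to block CDK7 activity.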

A673 cells = assay: Inhibition of proliferation of A673 cells (CyQUANT, 72 hour); format: cell-based, human; settings: A673 cells, 72 hour, CyQUANT, read-out: Inhibition of Proliferation of A673 Cells (calculated IC50)
Outline: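 Proliferation read-out by CyQUANT after a 72 h exposure, compounds spanning 4 μM–[…] in half-log steps. A673 cells cultured at 37° C under 5% CO2 in DMEM supplemented with 10% FBS plus 1 mM sodium pyruvate.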

[2] = biological target: T1, CDK12 (aa686-1082)/Cyclin K complex (Homo sapiens, UniProt Q9NYV4); assay: CDK12 inhibition assay (Caliper/LabChip EZ Reader kinase assay); format: biochemical; settings: Table 1, CDK12 (aa686-1082)/Cyclin K 50 nM, ATP 2 mM, 3 hr at 27° C.
T1 construct: CDK12 (aa686-1082)/Cyclin K complex
T1 sequence (Q9NYV4 686-1082, species assumed): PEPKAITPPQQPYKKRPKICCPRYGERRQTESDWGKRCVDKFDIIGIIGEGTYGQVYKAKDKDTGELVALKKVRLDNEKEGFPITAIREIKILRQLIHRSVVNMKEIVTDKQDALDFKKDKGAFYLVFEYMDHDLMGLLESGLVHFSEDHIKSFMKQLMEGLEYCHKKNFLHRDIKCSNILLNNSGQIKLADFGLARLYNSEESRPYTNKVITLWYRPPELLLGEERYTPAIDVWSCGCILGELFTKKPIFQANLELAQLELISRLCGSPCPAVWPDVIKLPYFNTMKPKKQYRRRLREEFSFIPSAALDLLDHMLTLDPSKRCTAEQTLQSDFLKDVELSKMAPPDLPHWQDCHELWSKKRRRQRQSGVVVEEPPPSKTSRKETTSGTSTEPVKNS
T1 sequence (O75909 whole entry partner, species assumed, the tested form may be a part): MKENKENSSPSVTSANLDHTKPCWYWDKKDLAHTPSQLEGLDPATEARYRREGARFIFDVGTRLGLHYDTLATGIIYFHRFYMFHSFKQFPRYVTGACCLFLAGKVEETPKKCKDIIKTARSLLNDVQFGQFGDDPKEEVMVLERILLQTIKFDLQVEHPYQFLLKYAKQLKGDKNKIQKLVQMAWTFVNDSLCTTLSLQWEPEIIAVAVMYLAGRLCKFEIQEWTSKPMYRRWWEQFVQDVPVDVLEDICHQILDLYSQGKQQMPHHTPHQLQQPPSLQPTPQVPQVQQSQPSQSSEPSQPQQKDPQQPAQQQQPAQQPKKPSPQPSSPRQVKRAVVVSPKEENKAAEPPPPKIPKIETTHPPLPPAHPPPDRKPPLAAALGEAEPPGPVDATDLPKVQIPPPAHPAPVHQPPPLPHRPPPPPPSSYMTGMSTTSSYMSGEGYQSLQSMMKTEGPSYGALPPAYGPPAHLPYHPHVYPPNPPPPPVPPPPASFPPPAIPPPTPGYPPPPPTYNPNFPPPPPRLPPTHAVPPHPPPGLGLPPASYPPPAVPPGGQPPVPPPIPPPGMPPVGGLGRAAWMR

CDK9/Cyclin T1 complex = CDK9/Cyclin T1 complex (Homo sapiens, UniProt P50750); assay: CDK9 inhibition assay (Caliper/LabChip EZ Reader kinase assay); format: biochemical; settings: Table 1, CDK9/Cyclin T1 8 nM, ATP 2 mM, 15 min at 27° C.
Chain of CDK9/Cyclin T1 complex (P50750 whole entry, species assumed): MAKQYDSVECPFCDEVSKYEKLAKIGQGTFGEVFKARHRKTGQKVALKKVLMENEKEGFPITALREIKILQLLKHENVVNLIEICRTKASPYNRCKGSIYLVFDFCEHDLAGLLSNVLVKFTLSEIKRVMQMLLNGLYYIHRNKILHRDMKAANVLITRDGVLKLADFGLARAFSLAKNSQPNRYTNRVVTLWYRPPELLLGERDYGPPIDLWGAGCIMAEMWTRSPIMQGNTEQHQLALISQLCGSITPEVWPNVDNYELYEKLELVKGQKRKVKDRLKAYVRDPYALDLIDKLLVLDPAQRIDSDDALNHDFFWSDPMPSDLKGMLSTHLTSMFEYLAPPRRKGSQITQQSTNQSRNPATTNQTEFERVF
Chain of CDK9/Cyclin T1 complex (O60563 whole entry partner, species assumed): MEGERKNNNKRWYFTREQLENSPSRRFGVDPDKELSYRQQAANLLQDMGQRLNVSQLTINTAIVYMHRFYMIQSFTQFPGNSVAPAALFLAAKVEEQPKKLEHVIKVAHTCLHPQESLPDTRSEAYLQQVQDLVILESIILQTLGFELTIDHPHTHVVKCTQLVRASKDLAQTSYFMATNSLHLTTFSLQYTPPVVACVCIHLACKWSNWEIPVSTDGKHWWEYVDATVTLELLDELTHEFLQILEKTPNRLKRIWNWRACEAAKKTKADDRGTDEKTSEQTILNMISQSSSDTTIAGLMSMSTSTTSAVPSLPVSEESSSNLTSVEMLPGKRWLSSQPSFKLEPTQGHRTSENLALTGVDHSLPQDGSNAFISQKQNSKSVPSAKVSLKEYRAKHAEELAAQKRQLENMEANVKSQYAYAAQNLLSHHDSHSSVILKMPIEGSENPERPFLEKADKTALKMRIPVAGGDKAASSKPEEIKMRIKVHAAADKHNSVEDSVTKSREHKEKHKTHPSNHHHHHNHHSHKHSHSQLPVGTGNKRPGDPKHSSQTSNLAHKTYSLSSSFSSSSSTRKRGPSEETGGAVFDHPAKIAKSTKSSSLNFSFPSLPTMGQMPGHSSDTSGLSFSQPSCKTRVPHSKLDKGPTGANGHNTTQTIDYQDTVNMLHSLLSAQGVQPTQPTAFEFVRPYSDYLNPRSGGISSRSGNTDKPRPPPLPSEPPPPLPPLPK
Outline: (§1)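 Activity read as fluorescent peptide conversion on a LabChip EZ Reader. For CDK2/Cyclin E1 (0.5 nM), substrate was 5-FAM-CDK7tide (2 μM) with 2 mM MgCl2; for CDK9/Cyclin T1 (8 nM), 5-FAM-CDK9tide (2 μM) with 10 mM MgCl2.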

HCC70 cells = assay: Inhibition of proliferation of HCC70 cells (CyQUANT Direct Cell Proliferation Assay, 72 hour); format: cell-based, human
Outline: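 Human triple-negative breast cancer HCC70 cells cultured at 37° C, 5% CO2, with compound for 72 hour. Anti-proliferative effect read by CyQUANT Direct Cell Proliferation Assay. Dinaciclib, a CDK inhibitor analog and triptolide served as positive controls.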

CDK2/Cyclin E1 complex = CDK2/Cyclin E1 complex (Homo sapiens, UniProt P24941); assay: CDK2 inhibition assay (Caliper/LabChip EZ Reader kinase assay); format: biochemical; settings: Table 1, CDK2/Cyclin E1 0.5 nM, ATP 2 mM, 35 min at 27° C.
Outline: as §1

[3] = Homo sapiens, HCC70, 72 h, read-out: Inhibition of Proliferation of HCC70 Cells (calculated IC50)
[4] = read-out: Inhibition of Proliferation of HCC70 Cells (calculated IC50)

Chain of CDK7/Cyclin H/MAT1 complex (P50613 whole entry, species assumed): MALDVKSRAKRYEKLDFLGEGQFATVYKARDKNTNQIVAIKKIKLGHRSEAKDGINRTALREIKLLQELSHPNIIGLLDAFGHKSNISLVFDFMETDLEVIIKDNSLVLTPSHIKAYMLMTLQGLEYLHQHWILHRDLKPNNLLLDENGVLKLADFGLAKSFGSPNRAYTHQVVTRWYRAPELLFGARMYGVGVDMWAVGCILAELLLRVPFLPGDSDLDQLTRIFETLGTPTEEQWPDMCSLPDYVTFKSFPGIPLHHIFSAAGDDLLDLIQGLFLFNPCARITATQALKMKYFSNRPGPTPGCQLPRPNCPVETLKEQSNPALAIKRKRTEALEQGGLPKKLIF
Chain of CDK7/Cyclin H/MAT1 complex (P51946 whole entry partner, species assumed): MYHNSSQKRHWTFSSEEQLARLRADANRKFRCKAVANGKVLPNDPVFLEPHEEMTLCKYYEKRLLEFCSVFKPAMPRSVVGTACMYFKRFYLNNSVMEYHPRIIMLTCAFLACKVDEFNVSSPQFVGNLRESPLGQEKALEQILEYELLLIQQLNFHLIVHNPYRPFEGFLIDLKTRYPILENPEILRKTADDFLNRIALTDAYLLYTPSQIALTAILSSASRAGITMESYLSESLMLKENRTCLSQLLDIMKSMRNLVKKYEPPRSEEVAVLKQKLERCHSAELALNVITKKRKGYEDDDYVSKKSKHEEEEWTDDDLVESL
Chain of CDK7/Cyclin H/MAT1 complex (P51948 whole entry partner, species assumed): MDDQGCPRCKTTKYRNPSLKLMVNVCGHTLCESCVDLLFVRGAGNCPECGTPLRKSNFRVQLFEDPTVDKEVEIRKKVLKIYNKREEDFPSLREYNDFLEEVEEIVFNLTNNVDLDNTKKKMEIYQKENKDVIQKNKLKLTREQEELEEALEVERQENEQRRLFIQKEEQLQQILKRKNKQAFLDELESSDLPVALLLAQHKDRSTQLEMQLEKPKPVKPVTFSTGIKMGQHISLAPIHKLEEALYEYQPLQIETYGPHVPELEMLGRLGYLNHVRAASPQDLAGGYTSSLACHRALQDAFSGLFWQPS

## O=C(c1cccc(-c2ccc3c(-c4nc(N[C@H]5CCCNC5)ncc4C(F)(F)F)c[nH]c3c2)c1)N1CCCC1 [Compound 340, [3-[3-[2-[[(3S)-3-piperidyl]amino]-5-(trifluoromethyl)pyrimidin-4-yl]-1H-indol-6-yl]phenyl]-pyrrolidin-1-yl-methanone]
[1]
  IC50: 20 to 200 nM
A673 cells
  IC50: 200 to 5000 nM
[2]
  IC50: 200 to 5000 nM
[2]; listed as 140
  IC50: > 5000 nM
CDK9/Cyclin T1 complex
  IC50: 200 to 5000 nM
CDK9/Cyclin T1 complex; listed as 140
  IC50: > 5000 nM
HCC70 cells; [3]
  IC50: 1000 to 5000 nM
CDK2/Cyclin E1 complex
  IC50: 200 to 5000 nM
CDK2/Cyclin E1 complex; listed as 140
  IC50: > 5000 nM

## CS(=O)(=O)c1c(C#N)ccc2c(-c3nc(N[C@H]4CCCNC4)ncc3Cl)c[nH]c12 [Compound 294, 3-[5-chloro-2-[[(3S)-3-piperidyl]amino]pyrimidin-4-yl]-7-methylsulfonyl-1H-indole-6-carbonitrile]
[1]
  IC50: < 20 nM
[1]; listed as 109
  IC50: < 20 nM
A673 cells
  IC50: 20 to 200 nM
[2]
  IC50: 200 to 5000 nM
[2]; listed as 109
  IC50: 20 to 200 nM
CDK9/Cyclin T1 complex
  IC50: 200 to 5000 nM
CDK9/Cyclin T1 complex; listed as 109
  IC50: 200 to 5000 nM
HCC70 cells; [3]
  IC50: < 100 nM
HCC70 cells; listed as 109, read-out: Inhibition of Proliferation of HCC70 Cells (calculated IC50)
  IC50: 100 to 1000 nM
CDK2/Cyclin E1 complex
  IC50: 200 to 5000 nM
CDK2/Cyclin E1 complex; listed as 109
  IC50: 200 to 5000 nM

## CCc1cnc(N[C@H]2CCCNC2)nc1-c1c[nH]c2cc(C#N)ccc12 [Compound 246]
[1]
  IC50: < 20 nM
A673 cells
  IC50: 200 to 5000 nM
[2]
  IC50: > 5000 nM
CDK9/Cyclin T1 complex
  IC50: > 5000 nM
HCC70 cells; [4]
  IC50: 100 to 1000 nM
CDK2/Cyclin E1 complex
  IC50: > 5000 nM

## FC(F)(F)c1cnc(N[C@H]2CCCNC2)nc1-c1n[nH]c2ccccc12 [Compound 103]
[1]
  IC50: < 20 nM
A673 cells; Homo sapiens, A673, 72 h
  IC50: 20 to 200 nM
[2]
  IC50: 20 to 200 nM
CDK9/Cyclin T1 complex
  IC50: 200 to 5000 nM
HCC70 cells; [3]
  IC50: < 100 nM
CDK2/Cyclin E1 complex
  IC50: 200 to 5000 nM

## CCc1cnc(N[C@H]2CCCNC2)nc1-c1c[nH]c2nc(C#N)ccc12 [Compound 287, (S)-3-(5-ethyl-2-(piperidin-3-ylamino)pyrimidin-4-yl)-1H-pyrrolo[2,3-b]pyridine-6-carbonitrile]
[1]
  IC50: < 20 nM
A673 cells; Homo sapiens, A673, 72 h
  IC50: 20 to 200 nM
[2]
  IC50: > 5000 nM
CDK9/Cyclin T1 complex
  IC50: > 5000 nM
HCC70 cells; [3]
  IC50: 100 to 1000 nM
CDK2/Cyclin E1 complex
  IC50: > 5000 nM

## CS(=O)(=O)c1ccc2c(-c3nc(N[C@H]4CCCNC4)ncc3C(F)(F)F)c[nH]c2c1 [Compound 199, 4-(6-methylsulfonyl-1H-indol-3-yl)-N-[(3S)-3-piperidyl]-5-(trifluoromethyl) pyrimidin-2-amine]
[1]
  IC50: < 20 nM
A673 cells; Homo sapiens, A673, 72 h
  IC50: < 20 nM
[2]
  IC50: 200 to 5000 nM
CDK9/Cyclin T1 complex
  IC50: 200 to 5000 nM
HCC70 cells; [3]
  IC50: 100 to 1000 nM
CDK2/Cyclin E1 complex
  IC50: 200 to 5000 nM

## C=CC(=O)N1CCC(CO[C@H]2CNC[C@@H](Nc3ncc(C(F)(F)F)c(-c4c[nH]c5c(S(C)(=O)=O)cccc45)n3)C2)CC1 [Compound 264]
[1]
  IC50: 20 to 200 nM
A673 cells; Homo sapiens, A673, 72 h
  IC50: < 20 nM
[2]
  IC50: 200 to 5000 nM
CDK9/Cyclin T1 complex
  IC50: > 5000 nM
HCC70 cells; [3]
  IC50: 100 to 1000 nM
CDK2/Cyclin E1 complex
  IC50: > 5000 nM

## CCc1cnc(NC2CCCNC2)nc1-c1c[nH]c2c(F)cccc12 (stereo not shown) [Compound 144]
[1]
  IC50: < 20 nM
A673 cells; Homo sapiens, A673, 72 h
  IC50: 20 to 200 nM
[2]
  IC50: 200 to 5000 nM
CDK9/Cyclin T1 complex
  IC50: 200 to 5000 nM
HCC70 cells; [3]
  IC50: 100 to 1000 nM
CDK2/Cyclin E1 complex
  IC50: 200 to 5000 nM

## FC(F)(F)c1cnc(N[C@@H]2CNC[C@H](c3nnc4ccccn34)C2)nc1-c1c[nH]c2ccccc12 [Compound 267]
[1]
  IC50: 20 to 200 nM
A673 cells
  IC50: < 20 nM
[2]
  IC50: 200 to 5000 nM
CDK9/Cyclin T1 complex
  IC50: 200 to 5000 nM
HCC70 cells; [4]
  IC50: < 100 nM
CDK2/Cyclin E1 complex
  IC50: 200 to 5000 nM

## Cn1ccc(-c2ccc3c(-c4nc(N[C@H]5CCCNC5)ncc4C(F)(F)F)c[nH]c3c2)n1 [Compound 303, 4-[6-(1-methylpyrazol-3-yl)-1H-indol-3-yl]-N-[(3S)-3-piperidyl]-5-(trifluoromethyl) pyrimidin-2-amine]
[1]
  IC50: < 20 nM
[1]; listed as 113
  IC50: 20 to 200 nM
A673 cells
  IC50: 200 to 5000 nM
[2]
  IC50: 200 to 5000 nM
[2]; listed as 113
  IC50: 200 to 5000 nM
CDK9/Cyclin T1 complex
  IC50: 200 to 5000 nM
CDK9/Cyclin T1 complex; listed as 113
  IC50: > 5000 nM
HCC70 cells; [3]
  IC50: 100 to 1000 nM
CDK2/Cyclin E1 complex
  IC50: 200 to 5000 nM
CDK2/Cyclin E1 complex; listed as 113
  IC50: > 5000 nM

## CCN1CCC[C@H](Nc2ncc(C(F)(F)F)c(-c3c[nH]c4cc(C#N)ccc34)n2)C1 [Compound 284]
[1]
  IC50: < 20 nM
A673 cells; Homo sapiens, A673, 72 h
  IC50: 20 to 200 nM
[2]
  IC50: 200 to 5000 nM
CDK9/Cyclin T1 complex
  IC50: 200 to 5000 nM
HCC70 cells; [3]
  IC50: 100 to 1000 nM
CDK2/Cyclin E1 complex
  IC50: 200 to 5000 nM

## O=C(c1ccc2c(-c3nc(N[C@H]4CCCNC4)ncc3C(F)(F)F)c[nH]c2c1)N1CCCC1 [Compound 278, [3-[2-[[(3S)-3-piperidyl]amino]-5-(trifluoromethyl)pyrimidin-4-yl]-1H-indol-6-yl]-Pyrrolidin-1-yl-methanone]
[1]
  IC50: 20 to 200 nM
A673 cells; Homo sapiens, A673, 72 h
  IC50: 20 to 200 nM
[2]
  IC50: 200 to 5000 nM
CDK9/Cyclin T1 complex
  IC50: > 5000 nM
HCC70 cells; [3]
  IC50: 100 to 1000 nM
CDK2/Cyclin E1 complex
  IC50: 200 to 5000 nM

## O=C(O)c1ccc2c(-c3nc(N[C@H]4CCCNC4)ncc3C(F)(F)F)c[nH]c2c1 [Compound 306, 3-[2-[[(3S)-3-piperidyl]amino]-5-(trifluoromethyl)pyrimidin-4-yl]-1H-indole-6-Carboxylic acid]
[1]
  IC50: 20 to 200 nM
[1]; listed as 114
  IC50: 20 to 200 nM
A673 cells
  IC50: 20 to 200 nM
[2]
  IC50: 200 to 5000 nM
[2]; listed as 114
  IC50: 200 to 5000 nM
CDK9/Cyclin T1 complex
  IC50: > 5000 nM
CDK9/Cyclin T1 complex; listed as 114
  IC50: 200 to 5000 nM
HCC70 cells; [3]
  IC50: 100 to 1000 nM
CDK2/Cyclin E1 complex
  IC50: 200 to 5000 nM
CDK2/Cyclin E1 complex; listed as 114
  IC50: 200 to 5000 nM

## O=S1(=O)CCn2cc(-c3nc(N[C@H]4CCCNC4)ncc3C(F)(F)F)c3cccc1c32 [Compound 348, (S)-6-(2-(piperidin-3-ylamino)-5-(trifluoromethyl)pyrimidin-4-yl)-2,3-dihydro-[1,4]thiazino[2,3,4-hi]indole 1,1-dioxide]
[1]
  IC50: 20 to 200 nM
[1]; listed as 117
  IC50: 20 to 200 nM
A673 cells
  IC50: 20 to 200 nM
[2]
  IC50: > 5000 nM
[2]; listed as 117
  IC50: 200 to 5000 nM
CDK9/Cyclin T1 complex
  IC50: > 5000 nM
CDK9/Cyclin T1 complex; listed as 117
  IC50: 200 to 5000 nM
HCC70 cells; [3]
  IC50: 100 to 1000 nM
CDK2/Cyclin E1 complex
  IC50: > 5000 nM
CDK2/Cyclin E1 complex; listed as 117
  IC50: 200 to 5000 nM

## CN1CCN(c2cccc3c(-c4nc(N[C@H]5CCCNC5)ncc4C(F)(F)F)c[nH]c23)C1=O [Compound 176]
[1]
  IC50: < 20 nM
A673 cells; Homo sapiens, A673, 72 h
  IC50: < 20 nM
[2]
  IC50: 200 to 5000 nM
CDK9/Cyclin T1 complex
  IC50: 200 to 5000 nM
HCC70 cells; [3]
  IC50: 100 to 1000 nM
CDK2/Cyclin E1 complex
  IC50: 200 to 5000 nM

## CCN1C[C@@H](Nc2ncc(C(F)(F)F)c(-c3c[nH]c4cc(S(C)(=O)=O)ccc34)n2)CC(C)(C)C1 [Compound 369, N-[(3S)-1-ethyl-5,5-dimethyl-3-piperidyl]-4-(6-methylsulfonyl-1H-indol-3-yl)-5-(trifluoromethyl)pyrimidin-2-amine]
[1]
  IC50: 20 to 200 nM
[1]; listed as 129
  IC50: 20 to 200 nM
A673 cells
  IC50: 20 to 200 nM
[2]
  IC50: > 5000 nM
[2]; listed as 129
  IC50: 200 to 5000 nM
CDK9/Cyclin T1 complex
  IC50: > 5000 nM
HCC70 cells; [3]
  IC50: 100 to 1000 nM
CDK2/Cyclin E1 complex
  IC50: > 5000 nM

Reference: US20240360165A1, “INHIBITORS OF CYCLIN DEPENDENT KINASE 7 (CDK7)” (Syros Pharmaceuticals, Inc., priority 2016, published 2024)
